Laboratory results published in US20250144067A1, “PERSONALIZED STARVATION THERAPY FOR CANCER” (Faeth Therapeutics, Inc., priority 2021, published 2025).

Tests used:
[1] = tested on: NCI-H292 lung cancer cells; experiment: FDA drug screening, complete media vs cholesterol-free media without statin (TABLE 1); assay type: cell-based, human
[2] = tested on: NCI-H292 lung cancer cells; experiment: FDA drug screening, complete media vs cholesterol-free media with simvastatin (TABLE 2); assay type: cell-based, human; conditions: for Cholesterol-free media + simvastatin (0.04 μM) / Complete Media: NCI-H292 cells
[3] = Complete minus Cholesterol-free, >0 enhanced anti-cancer activity, about 0 neutral, <0 antagonist
[4] = NCI-H292 cells, cholesterol-free media without statin
[5] = cholesterol-free media with simvastatin 0.04 μM, FDA drug library screen (TABLE 2)
[6] = complete media, FDA drug library screen (TABLE 2)
[7] = complete media minus cholesterol-free media + simvastatin (0.04 μM), >0 enhanced anti-cancer activity, about 0 neutral, <0 antagonist
[8] = NCI-H292 cells in cholesterol-free media without statin
[9] = NCI-H292 cells in complete media
[10] = FDA drug library screen, cholesterol-free media with simvastatin 0.04 μM
[11] = FDA drug library screen, complete media
[12] = Complete minus Cholesterol-free, greater than 0 enhanced anti-cancer activity, about 0 neutral, below 0 antagonists
[13] = complete media minus cholesterol-free media + simvastatin, >0 enhanced anti-cancer activity, about 0 neutral, <0 antagonist
[14] = Complete minus Cholesterol-free, greater than 0 enhanced anti-cancer activity, about 0 neutral, below 0 antagonist
[15] = NCI-H292 cells, FDA drug library screen, cholesterol-free media without statin
[16] = NCI-H292 cells, FDA drug library screen, complete media
[17] = drug in cholesterol-free media with simvastatin 0.04 μM
[18] = complete media vs cholesterol-free media + simvastatin (0.04 μM), >0 enhanced anti-cancer activity, about 0 neutral, <0 antagonist
[19] = FDA library drug in cholesterol-free media with simvastatin 0.04 μM
[20] = FDA library drug in complete media
[21] = NCI-H292 cells, cholesterol-free media without statin, FDA drug library screen
[22] = NCI-H292 cells, complete media, FDA drug library screen

COc1ncnc(NS(=O)(=O)c2ccc(N)cc2)c1OC [Sulfadoxine]
Difference [1, 3]: −0.27 | Cholesterol-free [1, 4]: 1.26 | Complete ([1]; NCI-H292 cells, complete media): 0.986 | Cholesterol-free media + simvastatin (0.04 μM) [2, 5]: 1.1 | Complete Media [2, 6]: 1.093 | Difference [2, 7]: −0.01

NC[C@H](CC(=O)O)c1ccc(Cl)cc1 [(R)-Baclofen]
Difference ([1]; Complete minus Cholesterol-free, […]): −0.91 | Cholesterol-free [1, 8]: 2.052 | Complete [1, 9]: 1.14 | Cholesterol-free media + simvastatin (0.04 μM) [2, 10]: 0.9854 | Complete Media [2, 11]: 0.8585 | Difference ([2]; complete media vs cholesterol-free media + simvastatin (0.04 μM), […]): −0.13

CCOc1ccc2ccccc2c1C(=O)N[C@@H]1C(=O)N2[C@@H]1SC(C)(C)[C@@H]2C(=O)O [Nafcillin (sodium monohydrate)]
Difference [1, 12]: −1.00 | Cholesterol-free [1, 8]: 1.957 | Complete [1, 9]: 0.9538 | Cholesterol-free media + simvastatin (0.04 μM) [2, 10]: 0.8693 | Difference [2, 13]: 0.30

C[C@H]1Oc2cc(cnc2N)-c2c(nn(C)c2C#N)CN(C)C(=O)c2ccc(F)cc21 [Lorlatinib]
Cholesterol-free [1, 4]: 1.143 | Complete ([1]; NCI-H292 cells, complete media): 0.8052 | Difference ([1]; complete vs cholesterol-free media, greater than 0 enhanced anti-cancer activity, about 0 neutral, below 0 antagonists): −0.34 | Cholesterol-free media + simvastatin (0.04 μM) [2, 10]: 0.9476 | Difference [2, 13]: 0.20

OCCN1C[C@H](O)[C@@H](O)[C@H](O)[C@H]1CO [Miglitol]
Difference [1, 14]: −0.11 | Cholesterol-free [1, 15]: 0.916 | Complete [1, 16]: 0.8049 | Cholesterol-free media + simvastatin (0.04 μM) [2, 17]: 1.367 | Complete Media ([2]; drug in complete media): 1.199 | Difference [2, 18]: −0.17

O=C(O)CCCCC1CCSS1 (stereo not shown) [Lipoic acid]
Difference [1, 14]: −0.11 | Cholesterol-free [1, 15]: 0.8613 | Complete [1, 16]: 0.7528 | Cholesterol-free media + simvastatin (0.04 μM) [2, 10]: 0.7443 | Complete Media [2, 11]: 1.012 | Difference [2, 13]: 0.27

CS(=O)(=O)n1cc2c(n1)CN([C@H]1CO[C@H](c3cc(F)ccc3F)[C@@H](N)C1)C2 [Omarigliptin]
Difference [1, 12]: −0.63 | Cholesterol-free [1, 8]: 1.475 | Complete [1, 9]: 0.8446 | Cholesterol-free media + simvastatin (0.04 μM) [2, 19]: 1.764 | Complete Media [2, 20]: 1.42 | Difference [2, 18]: −0.34

COc1ccc(-c2ccc3cc(C(=O)O)ccc3c2)cc1C12CC3CC(CC(C3)C1)C2 [Adapalene]
Cholesterol-free [1, 21]: 0.6976 | Complete [1, 22]: 1.022 | Difference ([1]; complete vs cholesterol-free media, >0 enhanced anti-cancer activity, about 0 neutral, <0 antagonist): 0.32 | Cholesterol-free media + simvastatin (0.04 μM) [2, 5]: 0.9237 | Complete Media [2, 6]: 0.9286 | Difference [2, 7]: 0.00

Nc1cccc2c1CN(C1CCC(=O)NC1=O)C2=O (stereo not shown) [Lenalidomide]
Difference [1, 14]: −0.16 | Cholesterol-free [1, 15]: 1.032 | Complete [1, 16]: 0.8739 | Cholesterol-free media + simvastatin (0.04 μM) [2, 5]: 1.008 | Complete Media [2, 6]: 0.9958 | Difference [2, 7]: −0.01

Cc1onc(-c2ccccc2)c1C(=O)N[C@@H]1C(=O)N2[C@@H]1SC(C)(C)[C@@H]2C(=O)O [Oxacillin (sodium monohydrate)]
Difference [1, 3]: −0.02 | Cholesterol-free [1, 21]: 0.9255 | Complete [1, 22]: 0.9062 | Cholesterol-free media + simvastatin (0.04 μM) [2, 19]: 1.304 | Complete Media [2, 20]: 1.035 | Difference [2, 18]: −0.27

CCCc1nc2c(C)cc(-c3nc4ccccc4n3C)cc2n1Cc1ccc(-c2ccccc2C(=O)O)cc1 [Telmisartan]
Difference [1, 3]: −0.06 | Cholesterol-free [1, 21]: 1.319 | Complete [1, 22]: 1.255 | Cholesterol-free media + simvastatin (0.04 μM) ([2]; cholesterol-free media with simvastatin 0.04 μM, cell growth value in FDA drug screen): 0.8657 | Complete Media ([2]; complete media, cell growth value in FDA drug screen): 0.906 | Difference [2, 13]: 0.04

NC(=O)N1c2ccccc2C[C@H](O)c2ccccc21 [Eslicarbazepine]
Difference [1, 3]: −0.02 | Cholesterol-free [1, 21]: 0.8833 | Complete [1, 22]: 0.8587 | Cholesterol-free media + simvastatin (0.04 μM) [2, 17]: 1.137 | Complete Media ([2]; drug in complete media): 0.9164 | Difference [2, 18]: −0.22

O[C@@H]1CO[C@H]2[C@@H]1OC[C@@H]2O [Isosorbide]
Difference [1, 3]: −0.05 | Cholesterol-free [1, 21]: 1.174 | Complete [1, 22]: 1.123 | Cholesterol-free media + simvastatin (0.04 μM) [2, 10]: 0.9214 | Complete Media [2, 11]: 1.515 | Difference [2, 13]: 0.59
